Test results reported in patent US20210228490A1, “STABLE PHARMACEUTICAL FORMULATION” (ORYZON GENOMICS, S.A., priority 2018, published 2021).
Entries after “also recorded” stand apart in the source; their conditions may differ.

Assay: Chemical stability of the API alone and in presence of excipients
Format: physicochemical
Description: Excipient selection/composition development was conducted in order to stabilize (trans)-N1-((1R,2S)-2-phenylcyclopropyl)cyclohexane-1,4-diamine in the final drug product to prevent its chemical degradation. (trans)-N1-((1R,2S)-2-phenylcyclopropyl)cyclohexane-1,4-diamine is very unstable in presence of excipients which are used to form a tablet composition. This is reflected by a decrease of the (trans)-N1-((1R,2S)-2-phenylcyclopropyl)cyclohexane-1,4-diamine content (assay) over time upon storage. The effect is more pronounced at elevated storage temperature.

chemical stability as an API (API alone): chemically very stable
Structure (SMILES): N[C@H]1CC[C@H](N[C@@H]2C[C@H]2c2ccccc2)CC1 [(trans)-N1-((1R,2S)-2-phenylcyclopropyl)cyclohexane-1,4-diamine]
stability in presence of excipients (in presence of excipients which are used to form a tablet composition, more pronounced at elevated storage temperature): very unstable; also recorded: decompose in presence of many excipients
